From patent WO2017093157A1, “Piperidine, pyrrolidine and 2-oxo-1,3-oxazinane derivatives as inhibitors of bacterial efflux-pumps for the treatment of microbial infections” (Basilea Pharmaceutica AG, priority 2015, dated 2017)

Tests used:
[1] = test system: E. coli ATCC25922; assay: Antibacterial activity in combination with linezolid, E. coli; assay type: cell-based; settings: Escherichia coli, linezolid 128 μg/mL, compound 50 μM, OD625 23 h minus 1 h
[2] = test system: P. aeruginosa PAOl; assay: Antibacterial activity in combination with linezolid, P. aeruginosa; assay type: cell-based; settings: Pseudomonas aeruginosa, linezolid 128 μg/mL, compound 50 μM, OD625 23 h minus 1 h

Structure (SMILES) | residual growth (% of uninhibited control) at 50 µM [1] [%] | residual growth (% of uninhibited control) at 50 µM [2] [%]
NCC1COC(=O)N(Cc2cc(C=O)cc(OCc3ccc(Cl)cc3Br)c2)C1 (centres unmarked) [Example 7, 3-[[5-(aminomethyl)-2-oxo-l,3-oxazinan-3-yl]methyl]-5-[(2-bromo-4-chloro-phenyl)methoxy]benzaldehyde] | ≤ 50 | –
C[N+]1(Cc2cc(OCCc3c[nH]cn3)cc(OCc3ccc(Cl)cc3Br)c2)CCC(CN)C1 (stereo not drawn) [Example 23, [l-[[3-[(2-bromo-4-chloro-phenyl)methoxy]-5-[2-(7H-imidazol-4-yl)ethoxy]phenyl]methyl]-l-methyl-pyrrolidin-l-ium-3-yl]methanamine] | – | ≤ 50
